In patent US6586639B2, “Functional alcohol releasing substance” (Kao Corporation, priority 1999, dated 2003):
Several values for one entry are separate records, joined by “and”; a condition that tells them apart may be missing. Identical values can stand only once.

Test system: Aspergillus niger
Experiment: Fungal resistance test on coated test cloth
Format: cell-based
Parameters: key to Judgment (fungal resistance): NG: Completely no fungal growth; TG: Growth on less than 10% of the surface area; SG: Growth on 10% or more and less than 30% of the surface area; MG: Growth on 30% or more and less than 60% of the surface area; HG: Growth on 60% or more of the surface area
Settings: cultured 29±1° C. 7 days; for Growth rate (%) Average: average of three test cloths; for Growth rate (%): single test cloths (three per solution), 0.3 ml ethanol solution (A 1.17%, B 1.00%, C 0.300%) coated, dried 48 hours
Procedure: Each of betaine ester (1), betaine ester (3) and geraniol was dissolved in 99.5% ethanol to prepare solutions having the following concentrations and used as test solutions (A), (B) and (C), respectively.
Test solution (A): betaine ester (1), 1.17% in concentration
Test solution (B): betaine ester (3), 1.00% in concentration
Test solution (C): geraniol, 0.300% in concentration
(1) Preparation of test cloth
A 0.3 ml portion of each test solution or 0.3 ml of 99.5% ethanol used as a control was separately coated on a cotton-polyester mixture test cloth cut into a disc of 25 mm in diameter and then the cloth was dried at 25° C. under 30% relative humidity for 48 hours to be used as a test cloth. Three sheets of the test cloth were prepared for one test solution and used in the test.
(2) Fungal resistance test
A plate agar medium having the following composition was prepared to a thickness of 15 mm in a Petri dish of 150 mm in diameter. The medium was used by sterilizing it in advance at 120° C. for 20 minutes in an autoclave.
Pure water: 1,500 ml, glucose: 15 g, agar: 23 g, inorganic salts stock solution (NH4NO3 90 g, KH2PO4 60 g, MgSO4 7H2O, 15 g, KCl 15 g, pure water 1,000 g): 50 ml
Each test cloth was put on the above medium, and about 1 ml of a spore suspension prepared by dispersing spores of a fungus (Aspergillus niger) in sterile water (containing 0.005% sodium dioctylsulfosuccinate) was sprayed. This was cultured at 29±1° C. for 7 days to carry out comparative test of fungal resistance by inspecting growing condition of the fungus on the periphery or surface of the sample, and the results were evaluated based on the following five step criteria by observing growth condition of the fungus on the test cloth surface with the naked eye and under a microscope. That is, when the fungus is not grown on the surface of a test cloth and also, when the test cloth is peeled from the medium, the fungus is not grown on the backside but forming an inhibition zone, the result is judged as excellent in fungal resistance (NG).
Completely no fungal growth: NG (no growth)
Growth on less than 10% of the surface area: TG (trace of growth)
Growth on 10% or more and less than 30% of the surface area: SG (slight growth)
Growth on 30% or more and less than 60% of the surface area: MG (moderate growth)
Growth on 60% or more of the surface area: HG (heavy growth)

| SMILES | Growth rate (%) Average [%] | Judgment (fungal resistance) | Growth rate (%) | Growth rate (%) (listed as (C)) |
| --- | --- | --- | --- | --- |
| CCCCCCCCCCCCCCCCCC(=O)NCCC[N+](C)(C)CC(=O)OC/C=C(\C)CCC=C(C)C.[Cl-] [betaine ester (1), N,N-dimethyl-N-geranyloxycarbonylmethyl-N-(3-(octadecanoylamino)propyl)ammonium chloride] | 0 | NG | 0 | – |
| CCCCCCCCCCCC(=O)NCCC[N+](C)(C)CC(=O)OC/C=C(\C)CCC=C(C)C.[Cl-] [betaine ester (3), N,N-dimethyl-N-geranyloxycarbonylmethyl-N-(3-(dodecanoylamino)propyl)ammonium chloride] | 0 | NG | 0 | – |
| CC(C)=CCC/C(C)=C/CO [geraniol, reference compound] | 36 | MG (Growth on 30% or more and less than 60% of the surface area) | – | 35% and 32% and 40% |
